The source of these data is US20050070719A1, “Inhibitors of dipeptidyl peptidase iv” (priority 2001, published 2005).

Counter-ions that a name gives are not always drawn.

T1 sequence (P14740 37-767 limits assumed): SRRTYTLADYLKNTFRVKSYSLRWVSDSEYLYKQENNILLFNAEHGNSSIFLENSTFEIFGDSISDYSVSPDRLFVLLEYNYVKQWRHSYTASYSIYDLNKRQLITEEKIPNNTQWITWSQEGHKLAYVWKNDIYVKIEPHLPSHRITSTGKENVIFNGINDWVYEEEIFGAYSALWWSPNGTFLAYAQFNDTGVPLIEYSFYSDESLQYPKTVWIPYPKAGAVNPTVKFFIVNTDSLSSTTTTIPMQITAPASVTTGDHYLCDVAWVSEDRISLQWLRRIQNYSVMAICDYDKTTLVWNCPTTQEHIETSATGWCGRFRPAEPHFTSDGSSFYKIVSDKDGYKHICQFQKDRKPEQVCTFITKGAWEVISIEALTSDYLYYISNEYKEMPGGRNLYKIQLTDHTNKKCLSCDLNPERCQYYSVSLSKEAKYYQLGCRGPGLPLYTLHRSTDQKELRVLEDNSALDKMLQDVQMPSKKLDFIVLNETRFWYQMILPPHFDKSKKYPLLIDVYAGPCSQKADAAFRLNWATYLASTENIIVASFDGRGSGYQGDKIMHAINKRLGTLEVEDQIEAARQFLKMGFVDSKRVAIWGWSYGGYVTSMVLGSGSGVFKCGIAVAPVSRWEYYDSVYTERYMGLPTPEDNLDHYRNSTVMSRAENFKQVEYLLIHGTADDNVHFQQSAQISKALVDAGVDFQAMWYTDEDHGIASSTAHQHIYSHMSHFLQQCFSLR

The first test has as its target T1, DPP IV (Rattus norvegicus, UniProt P14740).
T1 construct: Add 25 uL of rat plasma or buffer to wells; from tissue; host or cells: rat plasma
Kind of test: Measuring DPP IV inhibition (rat plasma, fluorogenic peptide substrate). The note with it: substrate H-Gly-Pro-alpha methyl coumarin, 30 min, room temp. In kind it is biochemical. As for the experimental part: Dilute 1 volume of rat plasma ([…] with sodium citrate) to 2.5 volumes assay buffer (25 mM HEPES, 140 mM NaCl, 1% BSA [added on the day of the assay]; pH 7.8) to yield approximately 350 micrograms total protein/well in a 96-well plate. […] Dilute the peptide substrate (H-Gly-Pro-alpha methyl coumarin, 10 mM stock in 100% DMSO) 1:100 in assay buffer. Compounds of this invention are diluted in 100% DMSO. Add 10 microliter of diluted compounds or DMSO vehicle to wells. Add 25 uL of rat plasma or buffer to wells. Add 25 uL MgCl2 to all wells. Vortex gently for 1 minute, then pre-incubate at room temp for 10 minutes. Start the reaction by adding 50 uL peptide substrate (no vortexing), and incubate the plate at room temp in the dark for 30 minutes. […] Read the plate at 380 nm (excitation) and 460 nm (emission).
Take `N[C@H](C(=O)N1CC=CC1)C1CCCCC1` [Example 6, 1-(L-α-cyclohexylglycyl)-3-pyrroline hydrogen chloride]: 1.88 µM corresponded to half-maximal inhibition (IC50).
On to `N#CC1CCN1C(=O)C(N)C1CCCCC1` (centres unmarked) [Example 16, 1-(2-amino-2-cyclohexyl-acetyl)azetidine-2-carbonitrile], for which the IC50 (usually the concentration needed to halve the response being measured) was 1.2 µM.
In turn, `N#C[C@@H]1CC(F)CN1C(=O)C(N)C1CCCCC1` (some centres unmarked) [Example 14, 2-Cyano-4-fluoro-1-cyclohexylglycylpyrrolidine hydrogen chloride] came in with an IC50 of 0.0065 µM.
As for `O=C(CNC12CC3CC(CC(C3)C1)C2)N1CCSC1` [Example 12, 1-[2-(adamant-1-ylamino)acetyl]-3-thiopyrrolidine], 4.82 µM corresponded to half-maximal inhibition (IC50).
Take `O=C(C1CC2CCCCC2N1)N1CCCC1` (centres unmarked) [Example 10, 1-(octahydroindole-2-carbonyl)pyrrolidine hydrochloride]: the IC50 is 10 µM.
Regarding `N#CC1CCCN1C(=O)C1NCC2CC21` (centres unmarked) [Example 2, 1-(3-azabicyclo[3.1.0]hexane-2-carbonyl)pyrrolidine-2-carbonitrile hydrochloride], the IC50 came to 0.0607 µM.
`N#C[C@@H]1CCCN1C(=O)[C@H]1NCC2CCCCC21` (some centres unmarked) [Example 4, 2-(L)-Cyano-(octahydro-isoindolyl)pyrrolidine hydrogen chloride]: the IC50 was 0.551 µM.
On to `N#CC1CC(F)CN1C(=O)C1CC2CCCCC2N1` (centres unmarked) [Example 3, 2-cyano-4-fluoro-1-(octahydroindole-2-carbonyl)-pyrrolidine hydrogen chloride], for which the IC50 amounted to 0.00165 µM.
As for `N#CC1CSCN1C(=O)C1CC2CCCCC2N1` (centres unmarked) [Example 5, 3-(octahydroindole-2-carbonyl)thiazolidine4-carbonitrile hydrochloride], the IC50 stood at 0.0038 µM.
Compound `Cl.N#CC1CCCN1C(=O)C1CC2CCCCC2N1` (centres unmarked) [Example 1, 1-(octahydroindole-2-carbonyl)pyrrolidine-2-carbonitrile hydrochloride] displayed an IC50 of 0.0139 µM.
Compound `N[C@H](C(=O)N1CCCCC1)C1CCCCC1` [Example 8, 1-(L-α-cyclohexylglycyl)piperidine hydrogen chloride] displayed an IC50 of 22.2 µM.
For the compound `CCC(C)[C@H](N)C(=O)N1CC(F)C[C@H]1C#N` (some centres unmarked) [Example 13, 2-cyano-4-fluoro-1-(sec-butyl)glycylpyrrolidine hydrogen chloride], inhibition was half-maximal at 0.0062 µM (IC50).
Same read-out and setting: in the case of `N#CC1CCN1C(=O)CNC12CC3CC(CC(C3)C1)C2` (centres unmarked) [Example 18, 1-[2-(adamant-1-ylamino)acetyl]-azetidine-2-carbonitrile] it was 0.223 µM; in that of `Cl.N#CC1CCN1C(=O)C1CC2CCCCC2N1` (centres unmarked) [Example 20, 1-(octahydroindole-2-carbonyl)azetidine-2-carbonitrile hydrochloride], 0.178 µM; in that of `N#CC1CCN1C(=O)C1CCCN1` (centres unmarked) [Example 17, 1-(pyrrolidine-2-carbonyl)azetidine-2-carbonitrile], 1.1 µM.

For another test, the system named is MPTP-lesioned mouse model of Parkinson's disease. The experiment in a line: In vivo reinnervation of the denervated striatum by nigrostriatal dopaminergic fibers (MPTP-lesioned mouse model of Parkinson's disease). The note with it: CD1 mice, MPTP 34 mg/kg i.p. days 1-5; compound 10 mg/kg s.c. once daily days 1-5; analysis day 7. The text has this:
MPTP (N-methyl-4-phenyl-1,2,3,6-tetrahydropyridine) is a systemically available neurotoxin specific to nigrostriatal dopaminergic neurons, i.e. to the cells that degenerate in human Parkinson's disease. Administration of MPTP to mice leads to a selective partial destruction of the mesotelencephalic dopaminergic projection, and to a loss of dopamine and dopaminergic fibres in the corpus striatum, which is the main forebrain target of midbrain dopaninergic neurons.
Young adult male CD1 albino mice (Harlan-Sprague Dawley; 22-25 g) were dosed i.p. with the dopamine cell-specific neurotoxin N-methyl-4-phenyl-1,2,3,6-tetrahydropyridine (MPTP hydrochloride, calculated as 34 mg/kg free base), dissolved in saline at a concentration of 3.4 mg/ml free base once daily on days one to five. […]
Blinded analysis of TH fiber density in the central striatum was performed at 630× magnification. […] The percentage of sample field covered by TH positive processes and terminals was calculated using an image analysis program (“Simple,” Compix Inc., Pittsburgh, Pa.). The mean striatal innervation density was calculated for each group. The magnitude of striatal deafferentation due to the MPTP lesion was assessed by dividing the observed striatal innervation values obtained in MPTP/vehicle treated cases by the mean striatal innervation density in the Vehicle/Vehicle group and expressed as % loss. […]
On to `Cl.N#CC1CCCN1C(=O)C1CC2CCCCC2N1` (centres unmarked) [Example 1, 1-(octahydroindole-2-carbonyl)pyrrolidine-2-carbonitrile hydrochloride], for which the “% protection of striatal tyrosine hydroxylase-immunoreactive fibres” value was 32.5%.
Regarding `Cl.N#CC1CCN1C(=O)C1CC2CCCCC2N1` (centres unmarked) [Example 20, 1-(octahydroindole-2-carbonyl)azetidine-2-carbonitrile hydrochloride], the “% protection of striatal tyrosine hydroxylase-immunoreactive fibres” value is 32.6%.
